Where two headings read alike, the source gives them in different places.
Tests used:
CDK2/CycE = CDK2/CycE (Homo sapiens (Human), UniProt P24941); experiment: CDK2/CycE kinase assay (Method 2); type: biochemical; details: 10 μM ATP
Text: 2. CDK2/CycE Kinase Assay:
CDK2/CycE-inhibitory activity of compounds of the present invention was quantified employing the CDK2/CycE TR-FRET assay as described in the following paragraphs:
Recombinant fusion proteins of GST and human CDK2 and of GST and human CycE, expressed in insect cells (Sf9) and purified by Glutathion-Sepharose affinity chromatography, were purchased from ProQinase GmbH (Freiburg, Germany). As substrate for the kinase reaction biotinylated peptide biotin-Ttds-[…] (C-terminus in amid form) was used which can be purchased e.g. form the company JERINI Peptide Technologies (Berlin, Germany).
(§1) For the assay 50 nl of a 100 fold concentrated solution of the test compound in DMSO was pipetted into a black low volume 384 well microtiter plate (Greiner Bio-One, Frickenhausen, Germany), 2 μl of a solution of CDK2/CycE in aqueous assay buffer [50 mM Tris/HCl pH 8.0, 10 mM MgCl2, 1.0 mM dithiothreitol, 0.1 mM sodium ortho-vanadate, 0.01% (v/v) Nonidet-P40 (Sigma)] were added and the mixture was incubated for 15 min at 22° C. to allow pre-binding of the test compounds to the enzyme before the start of the kinase reaction. […] The concentration of CDK2/CycE was adjusted depending of the activity of the enzyme lot and was chosen appropriate to have the assay in the linear range, typical concentrations were in the range of 130 ng/ml.
(§2) The resulting mixture was incubated 1 h at 22° C. to allow the formation of complex between the phosphorylated biotinylated peptide and the detection reagents. Subsequently the amount of phosphorylated substrate was evaluated by measurement of the resonance energy transfer from the Eu-chelate to the streptavidine-XL. Therefore, the fluorescence emissions at 620 nm and 665 nm after excitation at 350 nm was measured in a TR-FRET reader, e.g. a Rubystar (BMG Labtechnologies, Offenburg, Germany) or a Viewlux (Perkin-Elmer). The ratio of the emissions at 665 nm and at 622 nm was taken as the measure for the amount of phosphorylated substrate.

[1] = test system: HeLa, human cervical tumour cells; experiment: Proliferation assay, HeLa (Method 3); type: cell-based; details: 4 days, crystal violet, read-out: Inhibition of HeLa cell proliferation IC50
Experimental: (§3) After 24 hours, the cells of one plate (zero-point plate) were stained with crystal violet (see below), while the medium of the other plates was replaced by fresh culture medium (200 μl), to which the test substances were added in various concentrations (0 μM, as well as in the range of 0.001-10 μM; the final concentration of the solvent dimethyl sulfoxide was 0.5%). The cells were incubated for 4 days in the presence of test substances. Cell proliferation was determined by staining the cells with crystal violet: the cells were fixed by adding 20 μl/measuring point of an 11% glutaric aldehyde solution for 15 minutes at room temperature. After three washing cycles of the fixed cells with water, the plates were dried at room temperature. The cells were stained by adding 100 μl/measuring point of a 0.1% crystal violet solution (pH 3.0). After three washing cycles of the stained cells with water, the plates were dried at room temperature. The dye was dissolved by adding 100 μl/measuring point of a 10% acetic acid solution. The extinction was determined by photometry at a wavelength of 595 nm. The change of cell number, in percent, was calculated by normalization of the measured values to the extinction values of the zero-point plate (=0%) and the extinction of the untreated (0 μm) cells (=100%).

[2] = test system: A2780, human ovarian carcinoma cells; experiment: Proliferation assay, A2780 (Method 3); type: cell-based; details: A2780, 4 days, crystal violet, read-out: Inhibition of A2780 cell proliferation IC50
Experimental: as §3

CDK9/CycT1 [3] = target: T1, CDK9/CycT1 (Homo sapiens (Human), UniProt P50750); experiment: CDK9/CycT1 kinase assay (Method 1a); type: biochemical; details: for IC50: 10 μM ATP; for Selectivity CDK9/CDK2: derived from Methods 1a. and 2.
Text: 1a. CDK9/CycT1 Kinase Assay:
CDK9/CycT1-inhibitory activity of compounds of the present invention was quantified employing the CDK9/CycT1 TR-FRET assay as described in the following paragraphs:
(§4) Recombinant full-length His-tagged human CDK9 and CycT1, expressed in insect cells and purified by Ni-NTA affinity chromatography, were purchased from Invitrogen (Cat. No PV4131). As substrate for the kinase reaction biotinylated peptide biotin-Ttds-[…] (C-terminus in amid form) was used which can be purchased e.g. form the company JERINI Peptide Technologies (Berlin, Germany).
as §1, with “CDK9/CycT1” for “CDK2/CycE”, “1 μg/ml.” for “130 ng/ml.”
as §2, with “HTRF” for “TR-FRET”

CDK9/CycT1 [4] = target: T1, CDK9/CycT1; experiment: CDK9/CycT1 high ATP kinase assay (Method 1b); type: biochemical; details: 2 mM ATP
Experimental: 1b. CDK9/CycT1 High ATP Kinase Assay
CDK9/CycT1-inhibitory activity of compounds of the present invention at a high ATP concentration after preincubation of enzyme and test compounds was quantified employing the CDK9/CycT1 TR-FRET assay as described in the following paragraphs.
as §4, with “were purchase” for “were purchased”, “JERINI peptide technologies” for “JERINI Peptide Technologies”
as §1, with “CDK9/CycT1” for “CDK2/CycE”, “0.5 μg/ml.” for “130 ng/ml.”
as §2, with “HTRF” for “TR-FRET”

T1 sequence (P50750 whole entry): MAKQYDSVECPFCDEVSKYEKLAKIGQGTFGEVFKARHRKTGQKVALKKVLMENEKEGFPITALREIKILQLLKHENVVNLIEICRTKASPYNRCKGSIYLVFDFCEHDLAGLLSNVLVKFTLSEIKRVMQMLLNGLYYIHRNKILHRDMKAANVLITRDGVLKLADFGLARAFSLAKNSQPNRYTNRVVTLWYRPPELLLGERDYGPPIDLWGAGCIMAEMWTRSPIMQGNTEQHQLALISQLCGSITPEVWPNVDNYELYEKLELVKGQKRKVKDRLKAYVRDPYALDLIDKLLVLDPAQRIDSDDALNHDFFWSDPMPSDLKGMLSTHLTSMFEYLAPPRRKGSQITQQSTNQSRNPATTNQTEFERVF
T1 sequence (O60563 whole entry partner): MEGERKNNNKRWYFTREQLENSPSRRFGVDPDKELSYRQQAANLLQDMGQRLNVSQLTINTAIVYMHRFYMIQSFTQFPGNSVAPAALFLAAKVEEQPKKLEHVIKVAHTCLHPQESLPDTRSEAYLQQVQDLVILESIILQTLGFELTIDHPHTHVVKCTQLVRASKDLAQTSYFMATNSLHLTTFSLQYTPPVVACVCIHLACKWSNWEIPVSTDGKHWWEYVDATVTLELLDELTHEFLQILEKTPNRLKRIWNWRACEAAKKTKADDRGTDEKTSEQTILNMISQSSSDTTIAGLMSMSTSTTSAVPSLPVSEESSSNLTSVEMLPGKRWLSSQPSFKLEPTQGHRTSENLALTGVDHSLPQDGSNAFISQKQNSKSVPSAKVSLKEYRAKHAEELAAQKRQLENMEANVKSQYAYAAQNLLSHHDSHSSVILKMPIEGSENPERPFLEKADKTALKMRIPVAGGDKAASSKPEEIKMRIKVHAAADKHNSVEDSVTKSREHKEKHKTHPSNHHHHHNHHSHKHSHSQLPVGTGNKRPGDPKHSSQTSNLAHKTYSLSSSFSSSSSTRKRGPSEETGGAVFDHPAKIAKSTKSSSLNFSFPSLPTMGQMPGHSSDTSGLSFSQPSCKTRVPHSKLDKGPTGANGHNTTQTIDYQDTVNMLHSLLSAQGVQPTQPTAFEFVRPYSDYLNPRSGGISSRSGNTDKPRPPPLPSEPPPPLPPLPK

| IC50 (CDK2/CycE) [nM] | IC50 ([1]; Homo sapiens, 96 h) [nM] | IC50 ([2]; Homo sapiens, A2780, 96 h) [nM] | Compound | other results |
| --- | --- | --- | --- | --- |
| 380 | 1600 | – | CS(=N)(=O)Cc1cc(Br)cc(Nc2ncc(F)c(-c3ccc(F)cc3F)n2)c1 (racemic) [Example 19, (rac)-N-{3-Bromo-5-[(S-methylsulfonimidoyl)methyl]phenyl}-4-(2,4-difluorophenyl)-5-fluoropyrimidin-2-amine] | IC50 (CDK9/CycT1 [3]): 13 nM; Selectivity CDK9/CDK2 (CDK9/CycT1 [3]): 30 |
| – | 780 | – | COc1cc(CS(C)(=N)=O)cc(Nc2ncc(F)c(-c3ccc(F)cc3F)n2)c1 (racemic) [Example 21, (rac)-4-(2,4-Difluorophenyl)-5-fluoro-N-{3-methoxy-5-[(S-methylsulfonimidoyl)methyl]phenyl}pyrimidin-2-amine] | – |
| 1300 | – | – | N=S(=O)(CCN)Cc1cc(Nc2ncc(F)c(-c3ccc(F)cc3F)n2)cc(C(F)(F)F)c1 (single isomer, unassigned) [Example 26, N-[3-{[S-(2-Aminoethyl)sulfonimidoyl]methyl}-5-(trifluoromethyl)phenyl]-4-(2,4-difluorophenyl)-5-fluoropyrimidin-2-amine] | IC50 (CDK9/CycT1 [4]): 278 nM |
| 390 | – | 327 | Cc1cc(CS(C)(=O)=NC#N)cc(Nc2ncc(F)c(-c3ccc(F)cc3F)n2)c1 (single isomer, unassigned) [Example 35, [(3-{[4-(2,4-Difluorophenyl)-5-fluoro-pyrimidin-2-yl]amino}-5-methylbenzyl)-(methyl)oxido-λ^6-sulfanylidene]cyanamide] | IC50 [1]: 458 nM |
| 400 | – | – | Cc1cc(CS(C)(=O)=NC#N)cc(Nc2ncc(F)c(-c3ccc(F)cc3F)n2)c1 (single isomer, unassigned) [Example 36, [(3-{[4-(2,4-Difluorophenyl)-5-fluoro-pyrimidin-2-yl]amino}-5-methylbenzyl)-(methyl)oxido-λ^6-sulfanylidene]cyanamide] | IC50 [2]: 338 nM; IC50 [1]: 1020 nM |
| 430 | 1060 | 619 | CS(=O)(Cc1cc(Br)cc(Nc2ncc(F)c(-c3ccc(F)cc3F)n2)c1)=NC#N (single isomer, unassigned) [Example 39, [(3-Bromo-5-{[4-(2,4-difluorophenyl)-5-fluoropyrimidin-2-yl]amino}benzyl)(methyl)oxido-λ^6-sulfanylidene]cyanamide] | – |
| 102 | – | – | CS(=O)(Cc1cc(Br)cc(Nc2ncc(F)c(-c3ccc(F)cc3F)n2)c1)=NC#N (single isomer, unassigned) [Example 40, [(3-Bromo-5-{[4-(2,4-difluorophenyl)-5-fluoropyrimidin-2-yl]amino}benzyl)(methyl)oxido-λ^6-sulfanylidene]cyanamide] | IC50 [2]: 371 nM; IC50 [1]: 697 nM |
| 509 | – | – | CS(=N)(=O)Cc1cc(Br)cc(Nc2ncc(F)c(-c3ccc(F)cc3F)n2)c1 (single isomer, unassigned) [Example 41, N-{3-Bromo-5-[(S-methylsulfonimidoyl)methyl]phenyl}-4-(2,4-difluorophenyl)-5-fluoropyrimidin-2-amine] | IC50 (CDK9/CycT1 [3]): 18 nM; Selectivity CDK9/CDK2 (CDK9/CycT1 [3]): 28 |

Further lines, the compound ahead of its results:

| Compound | IC50 (CDK2/CycE) [nM] | IC50 ([1]; Homo sapiens, 96 h) [nM] | IC50 ([2]; Homo sapiens, A2780, 96 h) [nM] | other results |
| --- | --- | --- | --- | --- |
| CCOC(=O)N=S(C)(=O)Cc1cccc(Nc2ncc(F)c(-c3ccc(F)cc3F)n2)c1 (racemic) [Example 8, (rac)-Ethyl[(3-{[4-(2,4-difluorophenyl)-5-fluoropyrimidin-2-yl]amino}benzyl)(methyl)oxido-λ^6-sulfanylidene]carbamate] | 560 | 4470 | – | – |
| CS(=O)(Cc1cc(F)cc(Nc2ncc(F)c(-c3ccc(F)cc3F)n2)c1)=NC#N (racemic) [Example 10, (rac)-[(3-{[4-(2,4-Difluorophenyl)-5-fluoropyrimidin-2-yl]amino}-5-fluorobenzyl)(methyl)oxido-λ^6-sulfanylidene]cyanamide] | 570 | 1050 | 430 | – |
| CS(=N)(=O)Cc1cc(F)cc(Nc2ncc(F)c(-c3ccc(F)cc3F)n2)c1 (racemic) [Example 11, (rac)-4-(2,4-Difluorophenyl)-5-fluoro-N-{3-fluoro-5-[(S-methylsulfonimidoyl)methyl]phenyl}pyrimidin-2-amine] | – | 1320 | 900 | – |
| Cc1cc(CS(C)(=O)=NC#N)cc(Nc2ncc(F)c(-c3ccc(F)cc3F)n2)c1 (racemic) [Example 16, (rac)-[(3-{[4-(2,4-Difluorophenyl)-5-fluoropyrimidin-2-yl]amino}-5-methylbenzyl)(methyl)oxido-λ^6-sulfanylidene]cyanamide] | 470 | 850 | 300 | – |
| CS(=N)(=O)Cc1cc(F)cc(Nc2ncc(F)c(-c3ccc(F)cc3F)n2)c1 (single isomer, unassigned) [Example 12, 4-(2,4-Difluorophenyl)-5-fluoro-N-{3-fluoro-5-[(S-methylsulfonimidoyl)methyl]phenyl}pyrimidin-2-amine] | 1700 | 1940 | > 1000 | – |
| CS(=N)(=O)Cc1cc(F)cc(Nc2ncc(F)c(-c3ccc(F)cc3F)n2)c1 (single isomer, unassigned) [Example 13, 4-(2,4-Difluorophenyl)-5-fluoro-N-{3-fluoro-5-[(S-methylsulfonimidoyl)methyl]phenyl}pyrimidin-2-amine] | 730 | – | – | IC50 [2]: > 1000 nM; IC50 [1]: 1760 nM |

Source: patent US9499492B2, “4-(ortho)-fluorophenyl-5-fluoropyrimidin-2-yl amines containing a sulfoximine group” (BAYER PHARMA AKTIENGESELLSCHAFT, priority 2012, dated 2016)
